Assay results published in patent US20240140933A1, “OXOINDOLINE COMPOUND FOR THE TREATMENT OF INFLAMMATORY DISEASES OR CANCER” (Hoffmann-La Roche Inc., priority 2021, published 2024).

Molecular target: PDHK1 (Homo sapiens (Human), UniProt Q15118)
Experiment: PDHK1 enzymatic assay (AlphaScreen, phosphorylation of PDHE1 S293)
Assay type: biochemical
Conditions: 1 nM PDHK1, 25 nM PDHE1, 20 μM ATP, 30° C. for 45 minutes
Text: Pyruvate dehydrogenase complex (PDHc) is an enzyme that catalyzes the reaction of pyruvate and a lipoamide to give the acetylated dihydrolipoamide and carbon dioxide. PDHc has three subunits E1, E2 and E3. E1 has 3 serine phosphorylation sites S293, S232, S300. If E1 was phosphorylated, PDH will be inactivated. PDHK can phosphorylate PDH protein (also named PDHE1) in PDH complex (PDC) to inactivate it.

Sequence of PDHK1 (Q15118 29-436): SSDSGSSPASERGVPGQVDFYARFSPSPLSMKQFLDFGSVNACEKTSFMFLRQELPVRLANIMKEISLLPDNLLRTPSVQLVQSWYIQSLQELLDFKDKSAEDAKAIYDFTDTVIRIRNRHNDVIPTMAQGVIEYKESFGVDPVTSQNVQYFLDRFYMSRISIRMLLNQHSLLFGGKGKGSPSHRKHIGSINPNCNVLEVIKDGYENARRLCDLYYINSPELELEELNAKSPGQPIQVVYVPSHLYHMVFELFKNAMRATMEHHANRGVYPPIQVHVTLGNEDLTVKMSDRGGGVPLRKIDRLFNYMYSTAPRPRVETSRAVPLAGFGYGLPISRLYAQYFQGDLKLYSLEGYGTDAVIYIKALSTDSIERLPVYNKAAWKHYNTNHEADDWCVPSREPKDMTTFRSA

Row | SMILES | IC50 (read-out: Enzymatic IC50 against PDHK1 (converted)) [nM] | Enzymatic IC50 against PDHK1 [µg/mL]
1 | CCNc1cc(F)cc2c1NC(=O)[C@@]2(C)N1CCC[C@@H](Oc2ccc(C(=O)O)c(Cl)c2)C1 [Example 1B, 2-chloro-4-[[(3R)-1-[(3S)-7-(ethylamino)-5-fluoro-3-methyl-2-oxo-indolin-3-yl]-3-piperidyl]oxy]benzoic acid] | 15.2 | 
2 | CCNc1cc(F)cc2c1NC(=O)C2(C)N1CCC[C@@H](NC(=O)c2cccc(S(=O)(=O)F)c2)C1 (stereo partly drawn) [Example 42, 3-[[(3R)-1-[7-(ethylamino)-5-fluoro-3-methyl-2-oxo-indolin-3-yl]-3-piperidyl]carbamoyl]benzenesulfonyl fluoride] |  | 0.020
3 | CCNc1cc(F)cc2c1NC(=O)C2(C)N1CCC[C@@H](Cc2ccc(C(N)=O)cc2)C1 (stereo partly drawn) [Example 6, 4-[[(3S)-1-[7-(ethylamino)-5-fluoro-3-methyl-2-oxo-indolin-3-yl]-3-piperidyl]methyl]benzamide] |  | 0.143
4 | CCNc1cc(F)cc2c1NC(=O)C2(C)N1CC[C@H](c2ccccc2)[C@@H](Nc2ccc(C#N)nc2)C1 (stereo partly drawn) [Example 55, 5-[[(3R,4R)-1-[7-(ethylamino)-5-fluoro-3-methyl-2-oxo-indolin-3-yl]-4-phenyl-3-piperidyl]amino]pyridine-2-carbonitrile] |  | 0.037
5 | CCNc1cc(F)cc2c1NC(=O)C2(C)N1CCC[C@@H](Nc2ccc(OS(=O)(=O)F)cc2)C1 (stereo partly drawn) [Example 32, 7-(ethylamino)-5-fluoro-3-methyl-2-oxo-3-[(3R)-3-(4-fluorosulfonyloxyanilino)-1-piperidyl]indoline] |  | 0.135
6 | CCNc1cc(F)cc2c1NC(=O)C2(C)N1CCC[C@@H](Nc2cnc(C#N)c(Cl)c2)C1 (stereo partly drawn) [Example 22, 3-chloro-5-[[(3R)-1-[7-(ethylamino)-5-fluoro-3-methyl-2-oxo-indolin-3-yl]-3-piperidyl]amino]pyridine-2-carbonitrile] |  | 0.024
7 | CCNc1cc(F)cc2c1NC(=O)C2(C)N1CC[C@H](c2ccccc2Oc2ccc(C(N)=O)cc2)[C@@H](NC(C)=O)C1 (stereo partly drawn) [Example 57, 4-[2-[(3R,4R)-3-acetamido-1-[7-(ethylamino)-5-fluoro-3-methyl-2-oxo-indolin-3-yl]-4-piperidyl]phenoxy]benzamide] |  | 0.019
8 | CCNc1cc(F)cc2c1NC(=O)C2(C)N1C[C@H](F)C[C@@H](Nc2ccc(C#N)nc2)C1 (stereo partly drawn) [Example 45, 5-[[(3R,5R)-1-[7-(ethylamino)-5-fluoro-3-methyl-2-oxo-indolin-3-yl]-5-fluoro-3-piperidyl]amino]pyridine-2-carbonitrile] |  | 0.011
9 | CCNc1cc(F)cc2c1NC(=O)C2(C)N1CCC[C@@H](Nc2cnc(C#N)nc2)C1 (stereo partly drawn) [Example 17, 5-[[(3R)-1-[7-(ethylamino)-5-fluoro-3-methyl-2-oxo-indolin-3-yl]-3-piperidyl]amino]pyrimidine-2-carbonitrile] |  | 0.012
10 | CCNc1cc(F)cc2c1NC(=O)C2(C)N1CC[C@H](c2ccccc2)[C@@H](NC(=O)C2CN(C#N)C2)C1 (stereo partly drawn) [Example 54, 1-cyano-N-[(3R,4R)-1-[7-(ethylamino)-5-fluoro-3-methyl-2-oxo-indolin-3-yl]-4-phenyl-3-piperidyl]azetidine-3-carboxamide] |  | 0.009
11 | CCNc1cc(F)cc2c1NC(=O)C2(C)N1CCC[C@@H](Nc2ccc(S(=O)(=O)F)cn2)C1 (stereo partly drawn) [Example 29, 6-[[(3R)-1-[7-(ethylamino)-5-fluoro-3-methyl-2-oxo-indolin-3-yl]-3-piperidyl]amino]pyridine-3-sulfonyl fluoride] |  | 0.035
12 | CCNc1cc(F)cc2c1NC(=O)C2(C)N1CCC[C@@H](Nc2ccc(C#N)c(O)c2)C1 (stereo partly drawn) [Example 9, 4-[[(3R)-1-[7-(ethylamino)-5-fluoro-3-methyl-2-oxo-indolin-3-yl]-3-piperidyl]amino]-2-hydroxy-benzonitrile] |  | 0.015
13 | CCNc1cc(F)cc2c1NC(=O)C2(C)N1CCC[C@@H](Nc2ccc(S(=O)(=O)F)c(OC)c2)C1 (stereo partly drawn) [Example 28, 4-[[(3R)-1-[7-(ethylamino)-5-fluoro-3-methyl-2-oxo-indolin-3-yl]-3-piperidyl]amino]-2-methoxy-benzenesulfonyl fluoride] |  | 0.032
14 | CCNc1cc(F)cc2c1NC(=O)C2(C)N1CCC[C@@H](Nc2ccc(C#N)cc2)C1 (stereo partly drawn) [Example 8, 4-[[(3R)-1-[7-(ethylamino)-5-fluoro-3-methyl-2-oxo-indolin-3-yl]-3-piperidyl]amino]benzonitrile] |  | 0.022
15 | CCNc1cc(F)cc2c1NC(=O)C2(C)N1CCC[C@@H](N(C)c2ccc(C(N)=O)nc2)C1 (stereo partly drawn) [Example 24, 5-[[(3R)-1-[7-(ethylamino)-5-fluoro-3-methyl-2-oxo-indolin-3-yl]-3-piperidyl]-methyl-amino]pyridine-2-carboxamide] |  | 0.016
16 | CCNc1cc(F)cc2c1NC(=O)C2(C)N1CCC[C@@H](NC(=O)c2cccc(OS(=O)(=O)F)c2)C1 (stereo partly drawn) [Example 44, 7-(ethylamino)-5-fluoro-3-[(3R)-3-[(3-fluorosulfonyloxybenzoyl)amino]-1-piperidyl]-3-methyl-2-oxo-indoline] |  | 0.022
17 | CCNc1cc(F)cc2c1NC(=O)C2(C)N1C[C@@H](F)C[C@@H](Nc2ccc(C#N)nc2)C1 (stereo partly drawn) [Example 46, 5-[[(3R,5S)-1-[7-(ethylamino)-5-fluoro-3-methyl-2-oxo-indolin-3-yl]-5-fluoro-3-piperidyl]amino]pyridine-2-carbonitrile] |  | 0.012
18 | CCNc1cc(F)cc2c1NC(=O)C2(C)N1CCC[C@@H](Nc2cccc(S(=O)(=O)F)c2)C1 (stereo partly drawn) [Example 27, 3-[[(3R)-1-[7-(ethylamino)-5-fluoro-3-methyl-2-oxo-indolin-3-yl]-3-piperidyl]amino]benzenesulfonyl fluoride] |  | 0.086
19 | CCNc1cc(F)cc2c1NC(=O)C2(C)N1CC[C@@H](O)[C@@H](Nc2ccc(C#N)nc2)C1 (stereo partly drawn) [Example 51, 5-[[(3S,4R)-1-[7-(ethylamino)-5-fluoro-3-methyl-2-oxo-indolin-3-yl]-4-hydroxy-3-piperidyl]amino]pyridine-2-carbonitrile] |  | 0.017
20 | CCNc1cc(F)cc2c1NC(=O)C2(C)N1CCC[C@@H](Nc2cnc(C#N)cn2)C1 (stereo partly drawn) [Example 15, 5-[[(3R)-1-[7-(ethylamino)-5-fluoro-3-methyl-2-oxo-indolin-3-yl]-3-piperidyl]amino]pyrazine-2-carbonitrile] |  | 0.060
21 | C=CS(=O)(=O)N[C@H]1CN(C2(C)C(=O)Nc3c(NCC)cc(F)cc32)CC[C@@H]1c1ccccc1 (stereo partly drawn) [Example 53, N-[(3R,4R)-1-[7-(ethylamino)-5-fluoro-3-methyl-2-oxo-indolin-3-yl]-4-phenyl-3-piperidyl]ethenesulfonamide] |  | 0.015
22 | CCNc1cc(F)cc2c1NC(=O)C2(C)N1CC[C@H](F)[C@@H](Nc2ccc(C#N)nc2)C1 (stereo partly drawn) [Example 48, 5-[[(3S,4S)-1-[7-(ethylamino)-5-fluoro-3-methyl-2-oxo-indolin-3-yl]-4-fluoro-3-piperidyl]amino]pyridine-2-carbonitrile] |  | 0.025
23 | CCNc1cc(F)cc2c1NC(=O)C2(C)N1CCC[C@@H](Nc2cc(C)c(S(=O)(=O)F)cn2)C1 (stereo partly drawn) [Example 30, 4-methyl-6-[[(3R)-1-[7-(ethylamino)-5-fluoro-3-methyl-2-oxo-indolin-3-yl]-3-piperidyl]amino]pyridine-3-sulfonyl fluoride] |  | 0.065
24 | CCNc1cc(F)cc2c1NC(=O)C2(C)N1CCC[C@H](Nc2ccc(C(=O)O)nc2)C1 (stereo partly drawn) [Example 10, 5-[[(3S)-1-[7-(ethylamino)-5-fluoro-3-methyl-2-oxo-indolin-3-yl]-3-piperidyl]amino]pyridine-2-carboxylic acid] |  | 0.059
25 | CCNc1cc(F)cc2c1NC(=O)C2(C)N1CCC[C@@H](Nc2ccc(OS(=O)(=O)F)nc2)C1 (stereo partly drawn) [Example 33, 7-(ethylamino)-5-fluoro-3-methyl-2-oxo-3-[(3R)-3-[(6-fluorosulfonyloxy-3-pyridyl)amino]-1-piperidyl]indoline] |  | 0.068
26 | CCNc1cc(F)cc2c1NC(=O)C2(C)N1CCC[C@@H](Cc2ccc(C(=O)O)cc2)C1 (stereo partly drawn) [Example 5, 4-[[(3S)-1-[7-(ethylamino)-5-fluoro-3-methyl-2-oxo-indolin-3-yl]-3-piperidyl]methyl]benzoic acid] |  | 0.046
27 | CCNc1cc(F)cc2c1NC(=O)C2(C)N1CCC[C@@H](NC(=O)C2CCN(C#N)CC2)C1 (stereo partly drawn) [Example 38, 1-cyano-N-[(3R)-1-[7-(ethylamino)-5-fluoro-3-methyl-2-oxo-indolin-3-yl]-3-piperidyl]piperidine-4-carboxamide] |  | 0.026
28 | CCNc1cc(F)cc2c1NC(=O)C2(C)N1CCC[C@@H](Nc2ccc(C(N)=O)nc2)C1 (stereo partly drawn) [Example 12, 5-[[(3R)-1-[7-(ethylamino)-5-fluoro-3-methyl-2-oxo-indolin-3-yl]-3-piperidyl]amino]pyridine-2-carboxamide] |  | 0.062
29 | CCNc1cc(F)cc2c1NC(=O)C2(C)N1CCC[C@@](C)(Nc2ccc(C#N)nc2)C1 (stereo partly drawn) [Example 23, 5-[[(3R)-1-[7-(ethylamino)-5-fluoro-3-methyl-2-oxo-indolin-3-yl]-3-methyl-3-piperidyl]amino]pyridine-2-carbonitrile] |  | 0.049
30 | CCNc1cc(F)cc2c1NC(=O)C2(C)N1CCC[C@@H](Nc2cccc(OS(=O)(=O)F)c2)C1 (stereo partly drawn) [Example 31, 7-(ethylamino)-5-fluoro-3-methyl-2-oxo-3-[(3R)-3-(3-fluorosulfonyloxyanilino)-1-piperidyl]indoline] |  | 0.197
